In ChEMBL document CHEMBL3301361, “Experimental in vitro DMPK and physicochemical data on a set of publicly disclosed compounds”:
Counter-ions that a name gives are not always drawn. Non-standard residues stand in square brackets, D forms with d. Residues, ends and D or L forms follow the SMILES beside them. Phe(2-Me) = Cc1ccccc1C[C@H](N)C(=O)O

Test: in vitro
Conditions: human, plasma

Point of comparison: `O=C(CCS(=O)(=O)c1ccc(Br)cc1)Nc1ccc2c(c1)OCO2`, fraction unbound at 5 h 0.0119. Against it:
- COC(=O)N(C)c1c(N)nc(-c2nn(Cc3ccccc3F)c3ncccc23)nc1N [RIOCIGUAT] — higher, 0.0854
- Cc1ccnc2c1NC(=O)c1cccnc1N2C1CC1 [NEVIRAPINE] — higher, 0.557
- CC(C)Cc1c(C(=O)C(N)=O)c2c(OCC(=O)NS(C)(=O)=O)cccc2n1Cc1ccccc1 — higher, 0.0251
- COc1ccc2c(c1O)-c1cccc3c1[C@@H](C2)N(C)CC3 [APOCIDEINE] — higher, 0.062
- CN1CCN2c3ccccc3CC3(C(=O)N(C)C(=O)N(C)C3=O)C2C1 (centres undefined) — higher, 0.035
- O=C1COc2ccc(CNC3CCN(CCN4C(=O)COc5ccc([N+](=O)[O-])cc54)CC3)nc2N1 — higher, 0.249
- C[C@](N)(Cc1ccccc1)c1ccccc1 — higher, 0.179

Same assay, conditions: human, plasma, PPB

Point of comparison: `CN[C@@H](C)C(=O)N[C@H](C(=O)N[C@H]1CCCN([C@@H]2CCCc3ccccc32)C1)C1CCCCC1`, fraction unbound at 5 h 0.0676. Against it:
- COc1cc(OC)c(S(=O)(=O)N2c3ccccc3CCC2C)cc1NC(=O)Cc1ccnc(F)c1 (centres undefined) — lower, 0.0544
- COc1cc(OC)c(S(=O)(=O)N2c3ccccc3CCC2C)cc1NC(=O)CSc1ccncc1 (centres undefined) — lower, 0.0293
- CC(C)Oc1cc2ncc(C(N)=O)c(Nc3ccc(Cl)c(Cl)c3)c2cc1N1CCN(C)CC1 — lower, 0.0099
- CC(=O)S[C@@H]1CC2=CC(=O)CC[C@]2(C)C2CC[C@@]3(C)C(CC[C@@]34CCC(=O)O4)C21 (some centres undefined) — higher, 0.24
- COc1cc(OC)c(S(=O)(=O)N2c3ccccc3CCC2C)cc1NC(=S)NCC(=O)O (centres undefined) — higher, 0.309
- COc1cc(OC)c(S(=O)(=O)NCc2ccccc2N2CCC(CC(=O)O)CC2)cc1NC(=O)CCC(=O)O — higher, 0.0872
- CC(=O)Nc1ccc2c(c1)N(c1cc(NC3CC3)n3ncc(C#N)c3n1)CCO2 — higher, 0.0752
- NC(=O)c1cccc2c3c([nH]c12)CCCC3 — higher, 0.28
- COc1cc(OC)c(S(=O)(=O)N2c3ccccc3CCC2C)cc1NC(=O)CCC(=O)O (centres undefined) — higher, 0.186
- O=C(NC[C@@H](O)CN1CCC(Oc2ccc(Cl)c(Cl)c2)CC1)c1c[nH]c(=O)c2cc(F)ccc12 — lower, 0.0108
- COC(=O)CCn1cc(-c2cc(NC3CC3)n3ncc(C#N)c3n2)c2cc(NC(C)=O)ccc21 — lower, 0.016
- O=C(Nc1ccc(CCO)cc1)c1cc2cc(Cl)ccc2[nH]1 — lower, 0.0139
- COc1cc(OC)c(S(=O)(=O)N2c3ccccc3CCC2C)cc1NC(=O)COCC(=O)O (centres undefined) — higher, 0.266
- CN(C)CCNc1cc(-c2ccncc2)nc2ccccc12 — higher, 0.142
- COc1ccc2ncc(=O)n(CCN3CC[C@H](NCc4cc5c(cn4)OCCO5)[C@H](O)C3)c2c1 — higher, 0.194
- O=C(O)COn1c(-c2ccccc2)nc2ccc([N+](=O)[O-])cc21 — lower, 0.0139
- COCCNC(=O)c1ccc(Nc2ncc3cc(-c4ccncc4C)ccc3n2)cc1 — lower, 0.0139
- CC(=O)NCc1cccc(C(=O)O)c1 — higher, 0.17
- CN[C@@H](C)C(=O)N[C@H](C(=O)N[C@H]1CCCN(CCc2ccc(Cl)cc2)C1)C(C)(C)C — lower, 0.0293
- COc1cc(OC)c(S(=O)(=O)NCc2ccccc2N2CCC(CO)CC2)cc1NC(C)=O — higher, 0.126
- CN[C@@H](C)C(=O)N[C@H](C(=O)N[C@H]1CCCN(CCc2ccc(Br)cc2)C1)C(C)(C)C — lower, 0.0229
- COc1cc(OC)c(S(=O)(=O)N2c3ccccc3CCC2C)cc1NC(=O)CSCC(=O)O (centres undefined) — higher, 0.126
- CC(C)NC(=O)c1cc2c(-n3ccc(C(F)(F)F)n3)c(-c3cncc(C(=O)O)c3)cnc2[nH]1 — higher, 0.228
- COc1ccc(C[C@H](N)C(=O)N[C@@H](Cc2ccccc2C)C(N)=O)cc1 (H-Tyr(Me)-[Phe(2-Me)]-NH2) — higher, 0.36
- NC1=NC(c2ccc(F)cc2)Cc2ccccc21 (centres undefined) — higher, 0.36
- O=C(CCS(=O)(=O)c1ccc(Br)cc1)NCCc1ccccc1 — lower, 0.04
- CN1CCN(c2ccc3ncc(C(N)=O)c(Nc4ccc(Cl)c(Cl)c4)c3c2)CC1 — lower, 0.0581
- CCOc1cc(CC(=O)N[C@@H](CC(C)C)c2ccccc2N2CCCCC2)ccc1C(=O)O [REPAGLINIDE] — lower, 0.009
- CC(C)COc1ccc(-c2cc(=O)[nH]c(N)n2)cc1 — lower, 0.0374
- CN1CCN(C2=Nc3ccccc3Nc3ccc(OS(=O)(=O)C(F)(F)F)cc32)CC1 — lower, 0.0358
- COc1cc2ncc(C(N)=O)c(Nc3cccc(Cl)c3Cl)c2cc1N1CCN(C)CC1 — lower, 0.0447
- COc1ccc(Cl)cc1NC(=O)CCS(=O)(=O)c1ccc(C)cc1 — lower, 0.0219
- CN(Cc1cnc2nc(N)nc(N)c2n1)c1ccc(C(=O)N[C@@H](CCC(=O)O)C(=O)O)cc1 [METHOTREXATE] — higher, 0.535
- CCCC[C@H](NC(C)=O)C(=O)N[C@H]1CC(=O)NCCCC[C@@H](C(=O)O)NC(=O)[C@H](Cc2c[nH]c3ccccc23)NC(=O)[C@H](CCCN=C(N)N)NC(=O)[C@@H](Cc2ccccc2)NC(=O)[C@H](Cc2cnc[nH]2)NC1=O [BREMELANOTIDE] — higher, 0.729
- COc1ccc(-c2nc3c(NCCCNC(=O)c4cccnc4)c(Br)cnc3[nH]2)cc1 — lower, 0.013
- C[C@H](CO)Nc1nc(SCc2cccc(F)c2F)nc2[nH]ncc12 — lower, 0.035
- CC(C)c1ccc(/C=N/NC(=O)c2ccc(O)cc2)cc1 — lower, 0.0568
- COCCOc1cc2ncc(C(N)=O)c(Nc3ccc(F)cc3F)c2cc1N1CCN(C)CC1 — higher, 0.454
- CC(C)Oc1cc2ncc(C(N)=O)c(Nc3ccc(F)cc3F)c2cc1N1CCN(C)CC1 — lower, 0.0171
- COc1cc(Cc2cnc(N)nc2N)cc(OC)c1OC [TRIMETHOPRIM] — higher, 0.339
- CCNC(=O)c1cc2c(-n3ccc(C(F)(F)F)n3)c(-c3cncc(-c4n[nH]c(=O)o4)c3)cnc2[nH]1 — lower, 0.0437
- Cc1cn([C@H]2CCCN(Cc3ccc(C(=O)O)c(Oc4cccc(Cl)c4)c3)C2)c(=O)[nH]c1=O — lower, 0.0268
- Cc1nccn1-c1ccc(COc2cc(F)cc(C3(C(N)=O)CCOCC3)c2)cc1 — higher, 0.101
- CCN(Cc1cccc2ccccc12)c1cc(N2CCOCC2)nc(=O)[nH]1 — lower, 0.0358
- Cc1cnc(Nc2nc(N[C@@H](C)c3ncc(F)cn3)nc(N3CCOCC3)c2F)s1 — higher, 0.069
- CC1=C(/C=C/C(C)=C/C=C/C(C)=C/C(=O)Nc2ccc(O)cc2)C(C)(C)CCC1 [FENRETINIDE] — lower, 0.0019
- O=C(Nc1ccc(Cl)c(C(=O)Nc2cncs2)c1)c1cccc(Cl)c1 — lower, 0.002
- COc1cnc(-c2ccccn2)nc1N1CCCCC1 — lower, 0.0488
- Cc1ncc(NC(=O)c2cc(NC(=O)c3cc(F)cc(C(F)(F)F)c3)ccc2Cl)s1 — lower, 0.0035
- COC(=O)/C=C/C(=O)O [MONOMETHYL FUMARATE] — higher, 0.139
- CCOc1cc2ncc(C(N)=O)c(Nc3cccc(Cl)c3Cl)c2cc1N1CCN(CCO)CC1 — lower, 0.0477
- CC(NCCC(c1ccccc1)c1ccccc1)c1ccccc1 (centres undefined) [FENDILINE] — lower, 0.0116
- COc1ccc2ncc(=O)n(CCN3CC[C@@H](NCc4ccc5c(n4)NC(=O)CO5)[C@@H](OC)C3)c2c1 — higher, 0.28
- COc1cc(OC)c(S(=O)(=O)NCc2ccccc2N2CCC(CO)CC2)cc1NC(=O)CCC(=O)O — higher, 0.403
- N#Cc1c(-c2ccc(-c3ccccc3O)cc2)nc2ccncc2c1O — lower, 0.0026
- CCOc1cc2ncc(C(N)=O)c(Nc3cccc(Cl)c3Cl)c2cc1N1CCN(C(=O)CO)CC1 — higher, 0.163
- CC(C)(C)c1ccc2c(c1)CC[C@H]2NC(=O)Nc1cccc2[nH]ncc12 [ABT-102] — lower, 0.0022
- CCOc1cc2ncc(C(N)=O)c(Nc3ccc(F)cc3F)c2cc1N1CCCN(C)CC1 — higher, 0.304
- O=C(Nc1ccc(Cl)cc1)Nc1nnc(-c2ccncc2)s1 — lower, 0.0017
- CC(C)COc1cccc(/C=C2\SC(=O)NC2=O)c1N1CCC[C@@H](N)C1 — lower, 0.0119
- CN[C@@H](C)C(=O)N[C@H](C(=O)N[C@H]1CCCN(CCc2ccc(F)cc2)C1)C(C)(C)C — higher, 0.0784
- COc1cc(OC)c(S(=O)(=O)N2c3ccccc3CCC2C)cc1NC(=O)NCC(=O)O (centres undefined) — higher, 0.28
- Cc1ncc(NC(=O)c2cc(NC(=O)c3cccc(C(F)(F)F)c3)ccc2Cl)s1 — lower, 0.004
- COc1cc(OC)c(S(=O)(=O)N2c3ccccc3CCC2C)cc1NC(=O)CCc1nn[nH]n1 (centres undefined) — lower, 0.0647
- CCOc1cc2ncc(C(N)=O)c(Nc3ccc(F)cc3F)c2cc1N1CCCN(C2CC2)CC1 — lower, 0.0219
- COc1cc(OC)c(S(=O)(=O)N2c3ccccc3Oc3ccccc32)cc1NC(=O)/C=C/C(=O)O — lower, 0.024
- Cc1cn([C@H]2CCCN(S(=O)(=O)c3ccc(C#N)c(Oc4cccc(Cl)c4)c3)C2)c(=O)[nH]c1=O — lower, 0.0229
- O=C(Nc1cccc2cccnc12)c1ccc(N2C(=O)[C@@H]3[C@H](C2=O)[C@@H]2C=C[C@H]3C2)cc1 — lower, 0.0111
- O=C(O)c1cn(Cc2ccccc2)c2cc(N3CCNCC3)c(F)cc2c1=O — higher, 0.299
- CCNC(=O)c1cc2c(-n3ccc(C(F)(F)F)n3)c(-c3cncc(C(=O)O)c3)cnc2[nH]1 — higher, 0.117
- CCc1[nH]c2nc(Sc3cnc4ccc[n+]([O-])c4c3)nc(N3CC[C@@H](N)C3)c2c1Cl — higher, 0.204
- Cc1csc(NC(=O)COc2ncnc3c2cnn3-c2ccccc2Cl)n1 — lower, 0.0082
- CC(=O)Nc1ccc2c(c1)c(-c1cc(NC3CC3)n3ncc(C#N)c3n1)cn2CCO — lower, 0.0179
- Cc1cc(Nc2nc(N[C@@H](C)c3ncc(F)cn3)nc(N3CCOCC3)c2F)n[nH]1 — higher, 0.0836
- COc1ccc2c(O)cc(=O)n(Cc3ccc(-c4ccccc4-c4nn[nH]n4)cc3)c2c1 — lower, 0.0011
- COc1cc2ncc(C(N)=O)c(Nc3ccc(Cl)cc3Cl)c2cc1N1CCN(C)CC1 — lower, 0.0321
- CS(=O)(=O)c1ccc(C2=C(c3ccccc3)C(=O)OC2)cc1 [ROFECOXIB] — higher, 0.069
- COc1cc2ncn(-c3cc(OCc4ccccc4S(C)(=O)=O)c(C#N)s3)c2cc1OC [GSK-319347A] — lower, 0.0111
- C[C@H]1CN(Cc2cc(Cl)ccc2OCC(=O)O)CCN1S(=O)(=O)c1ccccc1 — lower, 0.0274
- N#Cc1c(-c2ccc(-c3ccncc3Cl)cc2)nc2ccncc2c1O — lower, 0.0055
